Source: ChEMBL document CHEMBL1135461, “Conformations and receptor activity of desmopressin analogues, which contain gamma-turn mimetics or a psi[CH(2)O] isostere” (2002)

The compounds below were run on Rattus norvegicus (assay: In vivo antidiuretic activity in female Sprague-Dawley rats by intravenous administration using Vasopressin house standard (561 IU/mg)).
`C[C@@H]1NC(=O)[C@H](Cc2ccccc2)NC(=O)[C@H](Cc2ccc(O)cc2)NC(=O)CCSSC[C@@H](C(=O)N2CCC[C@H]2C(=O)N[C@H](CCCN=C(N)N)C(=O)NCC(N)=O)NC(=O)[C@H](CC(N)=O)NC1=O` was tested, and the Agonist activity was 645 IU mg-1.
For `C[C@@H]1OC[C@H](Cc2ccccc2)NC(=O)[C@H](Cc2ccc(O)cc2)NC(=O)CCSSC[C@@H](C(=O)N2CCC[C@H]2C(=O)N[C@H](CCCN=C(N)N)C(=O)NCC(N)=O)NC(=O)[C@H](CC(N)=O)NC1=O`, the Agonist activity was 0.56 IU mg-1.
Compound `CC1OC2CN(C1=O)[C@@H](CC(N)=O)C(=O)N[C@H](C(=O)N1CCC[C@H]1C(=O)N[C@H](CCCN=C(N)N)C(=O)NCC(N)=O)CSSCCC(=O)N[C@@H](Cc1ccc(O)cc1)C(=O)N[C@H]2Cc1ccccc1` (stereo in doubt; 6) has an Agonist activity of 0.0026 IU mg-1.
Compound `N=C(N)NCCC[C@@H](NC(=O)[C@@H]1CCCN1C(=O)[C@@H]1CSSCCC(=O)N[C@@H](Cc2ccc(O)cc2)C(=O)N[C@@H](Cc2ccccc2)C(=O)N[C@@H](CCC(N)=O)C(=O)N[C@@H](CC(N)=O)C(=O)N1)C(=O)NCC(N)=O` [DESMOPRESSIN] has an Agonist activity of 1000 IU mg-1.
In the case of `N=C(N)NCCC[C@H](NC(=O)[C@@H]1CCCN1C(=O)[C@@H]1CSSC[C@H](N)C(=O)N[C@@H](Cc2ccc(O)cc2)C(=O)N[C@@H](Cc2ccccc2)C(=O)N[C@@H](CCC(N)=O)C(=O)N[C@@H](CC(N)=O)C(=O)N1)C(=O)NCC(N)=O` [VASOPRESSIN], the Agonist activity is reported as 561 IU mg-1.
